Experimental data taken from ChEMBL document CHEMBL4507324 (2021).

What was measured:
Conditions in all cases: Compound concentration 100.0 nM
[1] = target: Dual specificity protein kinase CLK2 (Homo sapiens) (UniProt P49760)
[2] = target: Ephrin type-A receptor 1 (Homo sapiens) (UniProt P21709)
[3] = target: Myosin light chain kinase family member 4 (Homo sapiens) (UniProt Q86YV6)
[4] = target: Serine/threonine-protein kinase OSR1 (Homo sapiens) (UniProt O95747)
[5] = system: Leucine-rich repeat serine/threonine-protein kinase 2 (Homo sapiens), Q5S007 [G2019S]
Sequence of Leucine-rich repeat serine/threonine-protein kinase 2 (Homo sapiens), Q5S007 [G2019S] (Q5S007 whole entry G2019S): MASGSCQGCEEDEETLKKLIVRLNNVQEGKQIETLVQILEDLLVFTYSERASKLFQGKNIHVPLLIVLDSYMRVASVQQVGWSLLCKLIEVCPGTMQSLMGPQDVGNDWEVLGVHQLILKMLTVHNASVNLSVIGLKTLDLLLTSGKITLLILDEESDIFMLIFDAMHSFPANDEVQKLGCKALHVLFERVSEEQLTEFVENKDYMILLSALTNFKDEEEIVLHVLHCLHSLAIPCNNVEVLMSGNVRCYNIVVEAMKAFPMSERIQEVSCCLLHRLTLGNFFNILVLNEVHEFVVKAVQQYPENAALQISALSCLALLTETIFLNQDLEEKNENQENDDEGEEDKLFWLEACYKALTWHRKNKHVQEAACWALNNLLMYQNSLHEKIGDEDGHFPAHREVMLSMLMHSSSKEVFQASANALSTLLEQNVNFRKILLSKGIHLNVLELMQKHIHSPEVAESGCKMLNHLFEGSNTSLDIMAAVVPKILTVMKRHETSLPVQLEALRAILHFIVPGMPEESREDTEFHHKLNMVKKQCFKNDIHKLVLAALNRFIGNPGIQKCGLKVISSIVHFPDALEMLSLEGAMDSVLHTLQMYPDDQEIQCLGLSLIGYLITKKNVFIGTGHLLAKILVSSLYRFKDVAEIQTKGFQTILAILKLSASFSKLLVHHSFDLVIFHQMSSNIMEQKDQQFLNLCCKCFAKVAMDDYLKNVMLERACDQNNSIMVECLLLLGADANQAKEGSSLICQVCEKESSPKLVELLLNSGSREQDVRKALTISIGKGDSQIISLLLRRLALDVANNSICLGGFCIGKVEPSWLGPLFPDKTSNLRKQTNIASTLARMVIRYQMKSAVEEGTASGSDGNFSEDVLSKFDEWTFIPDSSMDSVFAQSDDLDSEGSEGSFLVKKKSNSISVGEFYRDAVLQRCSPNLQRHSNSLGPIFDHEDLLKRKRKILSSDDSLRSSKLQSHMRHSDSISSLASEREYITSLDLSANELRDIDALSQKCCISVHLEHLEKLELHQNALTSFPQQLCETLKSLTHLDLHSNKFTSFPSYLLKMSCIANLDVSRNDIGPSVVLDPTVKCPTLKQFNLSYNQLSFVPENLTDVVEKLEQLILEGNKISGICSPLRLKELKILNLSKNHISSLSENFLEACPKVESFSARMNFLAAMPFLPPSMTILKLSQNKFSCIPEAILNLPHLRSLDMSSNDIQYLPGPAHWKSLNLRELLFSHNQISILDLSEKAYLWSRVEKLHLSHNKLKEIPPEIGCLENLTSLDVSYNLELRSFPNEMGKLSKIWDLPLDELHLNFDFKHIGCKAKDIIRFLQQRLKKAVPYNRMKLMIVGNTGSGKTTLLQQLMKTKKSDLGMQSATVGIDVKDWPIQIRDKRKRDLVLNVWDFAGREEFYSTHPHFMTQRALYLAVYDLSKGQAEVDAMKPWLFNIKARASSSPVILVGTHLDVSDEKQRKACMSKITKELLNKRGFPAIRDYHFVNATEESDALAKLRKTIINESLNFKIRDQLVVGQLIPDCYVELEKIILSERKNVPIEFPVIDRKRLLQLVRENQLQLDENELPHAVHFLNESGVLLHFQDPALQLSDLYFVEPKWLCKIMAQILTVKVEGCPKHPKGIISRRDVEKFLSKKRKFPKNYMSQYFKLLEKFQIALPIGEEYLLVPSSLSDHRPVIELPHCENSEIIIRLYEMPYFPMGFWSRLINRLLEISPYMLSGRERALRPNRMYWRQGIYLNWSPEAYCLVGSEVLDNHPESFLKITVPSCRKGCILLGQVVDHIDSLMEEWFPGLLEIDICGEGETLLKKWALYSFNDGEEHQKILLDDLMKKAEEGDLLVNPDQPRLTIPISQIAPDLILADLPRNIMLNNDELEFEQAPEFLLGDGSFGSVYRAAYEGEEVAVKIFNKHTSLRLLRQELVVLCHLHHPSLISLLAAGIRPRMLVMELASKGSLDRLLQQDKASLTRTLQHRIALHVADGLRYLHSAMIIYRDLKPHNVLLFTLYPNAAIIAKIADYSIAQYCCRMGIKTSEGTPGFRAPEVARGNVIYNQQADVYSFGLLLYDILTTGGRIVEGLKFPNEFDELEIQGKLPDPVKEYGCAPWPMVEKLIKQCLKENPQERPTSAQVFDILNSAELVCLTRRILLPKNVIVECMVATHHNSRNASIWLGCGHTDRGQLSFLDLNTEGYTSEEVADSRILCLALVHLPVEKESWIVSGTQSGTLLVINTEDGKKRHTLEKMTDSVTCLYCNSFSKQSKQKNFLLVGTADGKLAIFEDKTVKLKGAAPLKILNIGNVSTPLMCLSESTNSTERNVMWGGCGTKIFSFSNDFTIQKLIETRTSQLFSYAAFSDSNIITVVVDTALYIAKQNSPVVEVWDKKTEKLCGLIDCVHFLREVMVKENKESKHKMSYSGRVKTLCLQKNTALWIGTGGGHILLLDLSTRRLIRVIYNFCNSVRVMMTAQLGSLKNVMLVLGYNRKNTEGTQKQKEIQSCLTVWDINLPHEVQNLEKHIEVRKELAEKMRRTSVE

[6] = target: Serine/threonine-protein kinase pim-1 (Homo sapiens) (UniProt P11309)
[7] = target: G protein-coupled receptor kinase 3 (Homo sapiens) (UniProt P35626)
[8] = target: Phosphatidylinositol 5-phosphate 4-kinase type-2 gamma (Homo sapiens) (UniProt Q8TBX8)
[9] = system: ALK tyrosine kinase receptor (Homo sapiens), Q9UM73 [L1196M]
[10] = target: Serine/threonine-protein kinase 4 (Homo sapiens) (UniProt Q13043)
[11] = target: Cyclin-dependent kinase 4 (Homo sapiens) (UniProt P11802)
[12] = target: Aurora kinase C (Homo sapiens) (UniProt Q9UQB9)
[13] = target: Serine/threonine-protein kinase PAK 3 (Homo sapiens) (UniProt O75914)
Sequence of Serine/threonine-protein kinase PAK 3 (Homo sapiens) (O75914 whole entry, looked up): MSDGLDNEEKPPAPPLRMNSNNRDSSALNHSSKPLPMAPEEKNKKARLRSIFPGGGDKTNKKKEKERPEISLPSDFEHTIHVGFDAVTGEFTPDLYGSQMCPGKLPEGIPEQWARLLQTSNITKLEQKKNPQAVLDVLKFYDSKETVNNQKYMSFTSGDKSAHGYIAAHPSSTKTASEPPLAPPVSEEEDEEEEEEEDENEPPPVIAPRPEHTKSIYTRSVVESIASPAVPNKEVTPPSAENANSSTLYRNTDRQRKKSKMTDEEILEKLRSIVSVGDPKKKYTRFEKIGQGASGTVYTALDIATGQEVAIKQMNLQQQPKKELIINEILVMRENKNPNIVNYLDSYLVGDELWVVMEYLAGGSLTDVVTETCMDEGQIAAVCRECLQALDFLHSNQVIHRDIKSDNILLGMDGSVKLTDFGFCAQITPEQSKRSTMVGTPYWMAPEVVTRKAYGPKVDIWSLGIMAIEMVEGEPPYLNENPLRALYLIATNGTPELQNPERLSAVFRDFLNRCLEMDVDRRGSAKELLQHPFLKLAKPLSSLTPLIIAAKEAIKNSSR

[14] = target: Mitogen-activated protein kinase kinase kinase 14 (Homo sapiens) (UniProt Q99558)
[15] = system: Receptor-type tyrosine-protein kinase FLT3 (Homo sapiens), P36888 [D835Y]
[16] = target: Serine/threonine-protein kinase D1 (Homo sapiens) (UniProt Q15139)
[17] = target: Serine/threonine-protein kinase N2 (Homo sapiens) (UniProt Q16513)
[18] = target: Ephrin type-A receptor 6 (Homo sapiens) (UniProt Q9UF33)
[19] = target: Ephrin type-A receptor 3 (Homo sapiens) (UniProt P29320)
[20] = target: Cyclin-dependent kinase-like 1 (Homo sapiens) (UniProt Q00532)
Sequence of Cyclin-dependent kinase-like 1 (Homo sapiens) (Q00532 whole entry): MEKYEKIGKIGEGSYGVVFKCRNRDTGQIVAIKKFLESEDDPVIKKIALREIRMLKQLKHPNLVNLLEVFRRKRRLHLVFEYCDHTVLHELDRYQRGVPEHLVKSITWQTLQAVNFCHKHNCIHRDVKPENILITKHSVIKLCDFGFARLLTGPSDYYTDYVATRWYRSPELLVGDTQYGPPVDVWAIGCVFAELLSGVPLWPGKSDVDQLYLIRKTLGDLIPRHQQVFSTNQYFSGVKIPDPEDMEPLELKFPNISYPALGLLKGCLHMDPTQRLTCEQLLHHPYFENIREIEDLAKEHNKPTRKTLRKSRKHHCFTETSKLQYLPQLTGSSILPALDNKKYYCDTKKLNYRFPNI

[21] = target: Fibroblast growth factor receptor 2 (Homo sapiens) (UniProt P21802)
[22] = target: Tyrosine-protein kinase Fes/Fps (Homo sapiens) (UniProt P07332)
[23] = target: Tyrosine-protein kinase ZAP-70 (Homo sapiens) (UniProt P43403)
[24] = target: Ephrin type-B receptor 2 (Homo sapiens) (UniProt P29323)
[25] = target: Death-associated protein kinase 2 (Homo sapiens) (UniProt Q9UIK4)
[26] = target: Mitogen-activated protein kinase kinase kinase 11 (Homo sapiens) (UniProt Q16584)
[27] = target: Mitogen-activated protein kinase kinase kinase kinase 5 (Homo sapiens) (UniProt Q9Y4K4)
[28] = target: Tyrosine-protein kinase Mer (Homo sapiens) (UniProt Q12866)
[29] = target: Wee1-like protein kinase (Homo sapiens) (UniProt P30291)
[30] = target: Mitogen-activated protein kinase kinase kinase 12 (Homo sapiens) (UniProt Q12852)
Sequence of Mitogen-activated protein kinase kinase kinase 12 (Homo sapiens) (Q12852 whole entry): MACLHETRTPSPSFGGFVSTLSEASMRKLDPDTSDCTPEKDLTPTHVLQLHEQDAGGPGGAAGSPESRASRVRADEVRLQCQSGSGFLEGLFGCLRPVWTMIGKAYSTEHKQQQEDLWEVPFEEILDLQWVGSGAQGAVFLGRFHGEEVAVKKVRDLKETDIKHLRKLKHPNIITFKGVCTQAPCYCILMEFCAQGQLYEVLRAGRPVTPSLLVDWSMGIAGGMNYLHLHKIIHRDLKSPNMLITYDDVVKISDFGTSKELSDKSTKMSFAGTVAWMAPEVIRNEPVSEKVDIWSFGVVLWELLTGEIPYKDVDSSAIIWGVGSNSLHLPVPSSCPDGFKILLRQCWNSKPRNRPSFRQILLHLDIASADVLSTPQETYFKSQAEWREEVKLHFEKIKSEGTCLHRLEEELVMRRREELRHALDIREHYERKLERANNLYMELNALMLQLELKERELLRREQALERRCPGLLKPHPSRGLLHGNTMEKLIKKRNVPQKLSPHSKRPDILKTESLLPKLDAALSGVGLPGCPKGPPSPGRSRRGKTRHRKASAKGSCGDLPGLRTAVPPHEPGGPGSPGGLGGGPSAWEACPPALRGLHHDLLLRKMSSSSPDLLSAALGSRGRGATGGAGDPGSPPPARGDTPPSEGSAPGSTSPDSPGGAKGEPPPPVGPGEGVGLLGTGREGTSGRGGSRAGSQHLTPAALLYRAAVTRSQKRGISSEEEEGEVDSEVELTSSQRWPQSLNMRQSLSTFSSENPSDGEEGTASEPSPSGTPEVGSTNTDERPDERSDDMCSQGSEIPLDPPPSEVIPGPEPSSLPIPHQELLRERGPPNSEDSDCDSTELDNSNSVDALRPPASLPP

[31] = target: Tyrosine-protein kinase Yes (Homo sapiens) (UniProt P07947)
[32] = target: Cyclin-dependent kinase-like 2 (Homo sapiens) (UniProt Q92772)
[33] = target: Phosphatidylinositol 4-kinase beta (Homo sapiens) (UniProt Q9UBF8)
[34] = system: Epidermal growth factor receptor (Homo sapiens), P00533 [UNDEFINED MUTATION]
[35] = target: Mitogen-activated protein kinase 1 (Homo sapiens) (UniProt P28482)
[36] = target: Atypical kinase COQ8B, mitochondrial (Homo sapiens) (UniProt Q96D53)
[37] = target: Mitogen-activated protein kinase kinase kinase kinase 4 (Homo sapiens) (UniProt O95819)
[38] = target: 5'-AMP-activated protein kinase catalytic subunit alpha-1 (Homo sapiens) (UniProt Q13131)
[39] = target: Casein kinase I isoform gamma-1 (Homo sapiens) (UniProt Q9HCP0)
[40] = target: Casein kinase I isoform alpha-like (Homo sapiens) (UniProt Q8N752)
[41] = target: Fibroblast growth factor receptor 1 (Homo sapiens) (UniProt P11362)
[42] = target: Ephrin type-A receptor 8 (Homo sapiens) (UniProt P29322)
[43] = system: Receptor-type tyrosine-protein kinase FLT3 (Homo sapiens), P36888 [UNDEFINED MUTATION]
[44] = target: Mitogen-activated protein kinase 3 (Homo sapiens) (UniProt P27361)
Sequence of Mitogen-activated protein kinase 3 (Homo sapiens) (P27361 whole entry): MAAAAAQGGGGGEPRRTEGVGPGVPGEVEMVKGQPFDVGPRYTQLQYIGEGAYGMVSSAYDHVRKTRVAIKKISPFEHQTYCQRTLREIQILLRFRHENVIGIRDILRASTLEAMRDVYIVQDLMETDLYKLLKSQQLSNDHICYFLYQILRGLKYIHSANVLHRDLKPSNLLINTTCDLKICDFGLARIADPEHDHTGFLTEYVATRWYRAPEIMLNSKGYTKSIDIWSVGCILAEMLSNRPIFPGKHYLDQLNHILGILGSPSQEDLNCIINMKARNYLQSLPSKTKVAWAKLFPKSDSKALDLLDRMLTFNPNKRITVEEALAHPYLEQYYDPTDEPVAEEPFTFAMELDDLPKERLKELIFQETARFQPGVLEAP

[45] = target: Bone morphogenetic protein receptor type-2 (Homo sapiens) (UniProt Q13873)

Measured: residual activity

Sequence of Myosin light chain kinase family member 4 (Homo sapiens) (Q86YV6 whole entry): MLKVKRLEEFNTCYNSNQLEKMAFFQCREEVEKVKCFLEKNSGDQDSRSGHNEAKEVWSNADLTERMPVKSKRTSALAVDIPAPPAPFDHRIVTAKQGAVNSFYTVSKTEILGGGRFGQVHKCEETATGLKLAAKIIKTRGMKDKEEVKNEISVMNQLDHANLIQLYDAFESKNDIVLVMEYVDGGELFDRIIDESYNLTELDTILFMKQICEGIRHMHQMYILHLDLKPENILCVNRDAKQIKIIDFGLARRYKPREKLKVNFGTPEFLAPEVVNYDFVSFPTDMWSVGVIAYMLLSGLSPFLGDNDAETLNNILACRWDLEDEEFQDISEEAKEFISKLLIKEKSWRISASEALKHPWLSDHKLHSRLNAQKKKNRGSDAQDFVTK

CS(=O)(=O)N1CCCC(NC(=O)[C@H](CCC2CCCCC2)NC(=O)c2ccc(CNc3ncnc4c3nnn4-c3ccccc3)cc2)C1 (stereo not given in full) [SR-301]
inactive: [1] 100% | [2] 95% | [3] 100% | [4] 100% | [5] 100% | [6] 95% | [7] 100% | [8] 100% | [9] 100% | [10] 100% | [11] 91% | [12] 78% | [13] 100% | [14] 83% | [15] 93% | [16] 91% | [17] 95% | [18] 100% | [19] 75% | [20] 71% | [21] 97% | [22] 87% | [23] 100% | [24] 87% | [25] 90% | [26] 92% | [27] 76% | [28] 91% | [29] 72% | [30] 100% | [31] 98% | [32] 100% | [33] 100% | [34] 100% | [35] 90% | [36] 100% | [37] 66% | [38] 100% | [39] 100% | [40] 100% | [41] 91% | [42] 100% | [43] 100% | [44] 89% | [45] 100%

CS(=O)(=O)N1CCCC(NC(=O)[C@H](CCC2CCCCC2)NC(=O)c2ccc(CNC(=O)c3cnc4ccccn34)cc2)C1 (stereo not given in full) [SR-302]
inactive: [1] 98% | [2] 93% | [3] 63% | [4] 94% | [5] 100% | [6] 89% | [7] 100% | [8] 100% | [9] 94% | [10] 100% | [11] 99% | [12] 98% | [13] 100% | [14] 100% | [15] 100% | [16] 93% | [17] 100% | [18] 100% | [19] 97% | [20] 91% | [21] 100% | [22] 100% | [23] 100% | [24] 100% | [25] 94% | [26] 100% | [27] 100% | [28] 94% | [29] 100% | [30] 100% | [31] 88% | [32] 85% | [33] 98% | [34] 66% | [35] 100% | [36] 100% | [37] 100% | [38] 100% | [39] 100% | [40] 99% | [41] 100% | [42] 89% | [43] 86% | [44] 67% | [45] 100%
